Measurements reported in US20230113609A1, “SSTR5 ANTAGONISTS” (Kallyope, Inc., priority 2019, published 2023).

Target: T1, human SSTR5 (Homo sapiens, UniProt P35346)
T1 construct: expressed in transfected cells
Assay: Inositol phosphate accumulation assay (IP1 HTRF, antagonist mode)
Format: cell-based
Settings: CHO-K1 cells co-expressing human SSTR5 with Gqi5, SST28 agonist at concentration generating 90% of full activation
Outline: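 CHO-K1 cells stably co-expressing human SSTR5 and chimeric Gqi5 were pre-incubated with compound 15 minutes at 37° C, then stimulated with SST28 (30 nM as added, about EC90) for 90 minutes. IP1 read by HTRF (665/620 nm). % inhibition normalized to Max/Min controls; IC50 and maximal inhibition from 4-parameter fit.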

T1 sequence (P35346 whole entry): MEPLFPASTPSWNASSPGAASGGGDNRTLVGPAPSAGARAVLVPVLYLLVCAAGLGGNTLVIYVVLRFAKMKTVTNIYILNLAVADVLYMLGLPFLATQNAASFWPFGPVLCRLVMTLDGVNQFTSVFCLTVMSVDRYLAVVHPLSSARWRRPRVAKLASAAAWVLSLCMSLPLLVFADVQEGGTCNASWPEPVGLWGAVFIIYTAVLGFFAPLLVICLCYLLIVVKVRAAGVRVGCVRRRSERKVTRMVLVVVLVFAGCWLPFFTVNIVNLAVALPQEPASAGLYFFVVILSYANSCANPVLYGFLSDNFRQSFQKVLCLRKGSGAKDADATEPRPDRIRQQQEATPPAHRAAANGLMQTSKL

**Q.** With `CCOc1cc(-c2ccc(F)cc2)c(C2CC2)cc1CN1CCC2(CC1)CN(c1ccc(C(=O)NCCOC(CO)CO)cc1)C(=O)N2` [Example 73, 4-(8-((2-cyclopropyl-5-ethoxy-4′-fluoro-[1,1′-biphenyl]-4-yl)methyl)-2-oxo-1,3,8-triazaspiro[4.5]decan-3-yl)-N-(2-((1,3-dihydroxypropan-2-yl)oxy)ethyl)benzamide] as the molecule, how does the IC50 read?
**A.** ≤ 100 nM

**Q.** For `CCOc1cc(-c2ccc(F)cn2)c(C2CC2)cc1CN1CCC2(CC1)CN(c1ccc(C(=O)NCCOCCO)cc1)C(=O)N2` [Example 74, 4-(8-(5-cyclopropyl-2-ethoxy-4-(5-fluoropyridin-2-yl)benzyl)-2-oxo-1,3,8-triazaspiro[4.5]decan-3-yl)-N-(2-(2-hydroxyethoxy)ethyl)benzamide], which IC50 is on record?
**A.** ≤ 100 nM

**Q.** Which IC50 does the source give for `CCOc1cc(C(=O)OC)c(C2CC2)cc1CN1CCC2(CC1)CN(c1ccc(C(=O)NCCO)cc1)C(=O)N2` [Example 75, methyl 2-cyclopropyl-5-ethoxy-4-((3-(4-((2-hydroxyethyl)carbamoyl)phenyl)-2-oxo-1,3,8-triazaspiro[4.5]decan-8-yl)methyl)benzoate] here?
**A.** 100 to 1000 nM

**Q.** With `CCOc1cc(C(=O)OC)c(C2CC2)cc1CN1CCC2(CC1)CN(c1ccc(C(=O)NCCOCCO)cc1)C(=O)N2` [Example 76, methyl 2-cyclopropyl-5-ethoxy-4-((3-(4-((2-(2-hydroxyethoxy)ethyl)carbamoyl)phenyl)-2-oxo-1,3,8-triazaspiro[4.5]decan-8-yl)methyl)benzoate] as the molecule, how does the IC50 read?
**A.** 100 to 1000 nM

**Q.** How did the IC50 turn out when `CCOc1cc(C(=O)OC)c(C2CC2)cc1CN1CCC2(CC1)CN(c1ccc(C(=O)NCCCNC(N)=O)cc1)C(=O)N2` [Example 77, methyl 2-cyclopropyl-5-ethoxy-4-((2-oxo-3-(4-((3-ureidopropyl)carbamoyl)phenyl)-1,3,8-triazaspiro[4.5]decan-8-yl)methyl)benzoate] was run?
**A.** > 5000 nM

**Q.** How did the IC50 turn out when `CCOc1cc(C(=O)OC)c(C2CC2)cc1CN1CCC2(CC1)CN(c1ccc(C(=O)NCCCS(=O)(=O)O)cc1)C(=O)N2` [Example 78, 3-(4-(8-(5-cyclopropyl-2-ethoxy-4-(methoxycarbonyl)benzyl)-2-oxo-1,3,8-triazaspiro[4.5]decan-3-yl)benzamido)propane-1-sulfonic acid] was run?
**A.** > 5000 nM

**Q.** `CCOc1cc(C(=O)OC)c(C2CC2)cc1CN1CCC2(CC1)CN(c1ccc(C(=O)NCCCS(N)(=O)=O)cc1)C(=O)N2` [Example 79, methyl 2-cyclopropyl-5-ethoxy-4-((2-oxo-3-(4-((3-sulfamoylpropyl)carbamoyl)phenyl)-1,3,8-triazaspiro[4.5]decan-8-yl)methyl)benzoate] was tested. Which IC50 did it give?
**A.** 100 to 1000 nM

**Q.** How did the IC50 turn out when `CCOc1cc(-c2ccc(F)cn2)c(C2CC2)cc1CN1CCC2(CC1)CN(c1ccc(S(=O)(=O)NCCOCCO)cc1)C(=O)O2` [Example 82, 4-(8-(5-cyclopropyl-2-ethoxy-4-(5-fluoropyridin-2-yl)benzyl)-2-oxo-1-oxa-3,8-diazaspiro[4.5]decan-3-yl)-N-(2-(2-hydroxyethoxy)ethyl)benzenesulfonamide] was run?
**A.** ≤ 100 nM

**Q.** How did the IC50 turn out when `CCOc1cc(-c2ccc(F)cc2)c(C2CC2)cc1CN1CCC2(CC1)CN(c1ccc(S(=O)(=O)NCCOCCOCCO)cc1)C(=O)O2` [Example 83, 4-(8-((2-cyclopropyl-5-ethoxy-4′-fluoro-[1,1′-biphenyl]-4-yl)methyl)-2-oxo-1-oxa-3,8-diazaspiro[4.5]decan-3-yl)-N-(2-(2-(2-hydroxyethoxy)ethoxy)ethyl)benzenesulfonamide] was run?
**A.** ≤ 100 nM

**Q.** For `CCOc1cc(C(=O)OC)c(C2CC2)cc1CN1CCN(C(=O)Oc2ccc(C(=O)NC[C@H](O)[C@@H](O)[C@H](O)[C@H](O)CO)cc2)CC1` [Example 96], which IC50 is on record?
**A.** 100 to 1000 nM

**Q.** How did the IC50 turn out when `CCOc1cc(C(=O)OC)c(C2CC2)cc1CN1CCN(C(=O)Cc2ccc(C(=O)NC[C@H](O)[C@@H](O)[C@H](O)[C@H](O)CO)cc2)CC1` [Example 97, methyl 2-cyclopropyl-5-ethoxy-4-((4-(2-(4-(((2S,3R,4R,5R)-2,3,4,5,6-pentahydroxyhexyl)carbamoyl)phenyl)acetyl)piperazin-1-yl)methyl)benzoate] was run?
**A.** > 5000 nM

**Q.** With `CCOc1cc(C(=O)OC)c(C2CC2)cc1CN1CCN(C(=O)Oc2cccc(C(=O)NC[C@H](O)[C@@H](O)[C@H](O)[C@H](O)CO)c2)CC1` [Example 98] as the molecule, how does the IC50 read?
**A.** 100 to 1000 nM

**Q.** For `CCOc1cc(C(=O)OC)c(C2CC2)cc1CN1CCN(C(=O)Oc2ccc(C(=O)N3CC(CNC[C@H](O)[C@@H](O)[C@H](O)[C@H](O)CO)C3)cc2)CC1` [Example 99, 4-(3-((((2S,3R,4R,5R)-2,3,4,5,6-pentahydroxyhexyl)amino)methyl)azetidine-1-carbonyl)phenyl 4-(5-cyclopropyl-2-ethoxy-4-(methoxycarbonyl)benzyl)piperazine-1-carboxylate], which IC50 is on record?
**A.** 100 to 1000 nM

**Q.** For `CCOc1cc(CN2CCC3(CC2)CN(c2ccc(C(=O)NCCCC(=O)NCCO)cc2)C(=O)O3)cc(OCC)c1-c1ccc(F)cc1` [compound 1, 4-(8-((2,6-diethoxy-4′-fluoro-[1,1′-biphenyl]-4-yl)methyl)-2-oxo-1-oxa-3,8-diazaspiro [4.5]decan-3-yl)-N-(4-((2-hydroxyethyl)amino)-4-oxobutyl)benzamide], which IC50 is on record?
**A.** 100 to 1000 nM

**Q.** Which IC50 does the source give for `CCOc1cc(C(=O)OC)c(C2CC2)cc1CN1CCC2(CC1)CC(=O)N(c1ccc(C(=O)NCCNC(=O)NCCO)cc1)C2` [compound 13, Methyl 2-cyclopropyl-5-ethoxy-4-[[2-[4-[2-(2-hydroxyethylcarbamoylamino)ethylcarbamoyl]phenyl]-3-oxo-2,8-diazaspiro[4.5]decan-8-yl]methyl]benzoate] here?
**A.** > 5000 nM

**Q.** With `CCOc1cc(C(=O)OCc2oc(=O)oc2C)c(C2CC2)cc1CN1CCC2(CC1)CC(=O)N(c1ccc(C(=O)NC[C@H](O)[C@@H](O)[C@H](O)[C@H](O)CO)cc1)C2` [compound 24] as the molecule, how does the IC50 read?
**A.** > 5000 nM

**Q.** How did the IC50 turn out when `CCOc1cc(-c2ccc(F)cc2)c(C2CC2)cc1CN1CCC2(CC1)CN(c1ccc(C(=O)NCCOCCO)cc1)C(=O)N2` [compound 65, 4-(8-((2-cyclopropyl-5-ethoxy-4′-fluoro-[1,1′-biphenyl]-4-yl)methyl)-2-oxo-1,3,8-triazaspiro[4.5]decan-3-yl)-N-(2-(2-hydroxyethoxy)ethyl)benzamide] was run?
**A.** ≤ 100 nM

**Q.** `CCOc1cc(-c2ccc(F)cc2)c(C2CC2)cc1CN1CCC2(CC1)CN(c1ccc(S(=O)(=O)NCCCNC(=N)N)cc1)C(=O)O2` [compound 80, 4-(8-((2-cyclopropyl-5-ethoxy-4′-fluoro-[1,1′-biphenyl]-4-yl)methyl)-2-oxo-1-oxa-3,8-diazaspiro [4.5]decan-3-yl)-N-(3-guanidinopropyl)benzenesulfonamide] was tested. Which IC50 did it give?
**A.** ≤ 100 nM

**Q.** With `CCOc1cc(-c2ccc(F)cc2)c(C2CC2)cc1CN1CCC2(CC1)CN(c1ccc(S(=O)(=O)NCCOCCO)cc1)C(=O)N2` [compound 85, 4-(8-((2-cyclopropyl-5-ethoxy-4′-fluoro-[1,1′-biphenyl]-4-yl)methyl)-2-oxo-1,3,8-triazaspiro[4.5]decan-3-yl)-N-(2-(2-hydroxyethoxy)ethyl)benzenesulfonamide] as the molecule, how does the IC50 read?
**A.** ≤ 100 nM

**Q.** Which IC50 does the source give for `CCOc1cc(S(C)(=O)=O)c(C2CC2)cc1CN1CCC2(CC1)CN(c1ccc(S(=O)(=O)N(Cc3ccc(OC)cc3)Cc3ccc(OC)cc3)cc1)C(=O)N2` [compound 86, 4-[8-[(5-cyclopropyl-2-ethoxy-4-methylsulfonyl-phenyl)methyl]-2-oxo-1,3,8-triazaspiro[4.5]decan-3-yl]-N,N-bis[(4-methoxyphenyl)methyl]benzenesulfonamide] here?
**A.** ≤ 100 nM
